These results are taken from BindingDB's records for doi:10.1016/j.bmcl.2011.12.066 (Daiichi Sankyo, 2012).

Molecules are shown by their SMILES. pEC50: −log10 of the molar value.

The target in this experiment is T1, Peroxisome proliferator-activated receptor gamma (Homo sapiens, UniProt P37231).
T1 sequence (P37231 whole entry): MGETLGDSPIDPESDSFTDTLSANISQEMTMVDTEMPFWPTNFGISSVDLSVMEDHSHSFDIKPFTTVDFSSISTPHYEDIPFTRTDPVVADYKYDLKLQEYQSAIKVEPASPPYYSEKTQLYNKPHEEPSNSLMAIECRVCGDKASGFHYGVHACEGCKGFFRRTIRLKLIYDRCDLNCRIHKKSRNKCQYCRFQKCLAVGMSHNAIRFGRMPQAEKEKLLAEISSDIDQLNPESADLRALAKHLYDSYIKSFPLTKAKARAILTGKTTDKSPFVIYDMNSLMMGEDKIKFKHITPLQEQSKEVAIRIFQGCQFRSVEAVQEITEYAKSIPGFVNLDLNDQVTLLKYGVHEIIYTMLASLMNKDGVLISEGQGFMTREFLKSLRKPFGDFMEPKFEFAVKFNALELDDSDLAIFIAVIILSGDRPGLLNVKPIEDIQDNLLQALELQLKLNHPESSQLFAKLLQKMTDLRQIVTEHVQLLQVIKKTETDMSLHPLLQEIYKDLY
Put plainly: Partial agonist activity at human PPARgamma expressed in MG-63 cells by reporter gene-based transactivation assay. A general note: Reporter assays use an easily measured gene product as a stand-in for the process of interest.

`COc1cc(O)c2c(c1C(=O)NCc1cc(O)cc3ccccc13)OC1=CC(=O)C(C(C)=O)C(=O)[C@]12C` (some centres not stated): the pEC50 (in general, −log10 of the EC50, conventionally taken in molar units) is 6.89.

Turning to `COC(=O)CCc1cc(CNC(=O)c2c(OC)cc(O)c3c2OC2=CC(=O)C(C(C)=O)C(=O)[C@]23C)c2ccccc2c1` (some centres not stated), the pEC50 was 6.89.
